# Test results from patent US11243207B2, “Assessing and treating cancer” (Mayo Foundation for Medical Education and Research, priority 2018, dated 2022).
# Tests used:
# LIV58 HCC PDTX = LIV58 HCC PDTX mouse model; assay type: in vivo
# Method: (§1) Tissues were cut into 4×4×4 mm cubes and surgically implanted under anesthesia with 100 μl Matrigel into 4-6 week old athymic nude female mice. Tumors were measured 1 to 2 times per week using calipers and volumes calculated by […]*(L×W×H). Once tumors reached ˜100 mm3, either placebo or SSI-4 treatment was administered at 180, or 600 mg/kg in custom AIN76 animal chow by Research Diets, Inc. Based upon food consumption, the amount of SSI4 ingested was 20 mg/kg and 50 mg/kg, respectively. For the combination study, mice were administered either 10 mg/kg SSI4, 30 mg/kg sorafenib or both in Nutra-gel diet.
# FFPE tissues were cut into 5 μm sections, deparaffinized, hydrated, antigen retrieved for 25 minutes at pH 6.0 and blocked for 5 minutes with Dako diluent. Immunostaining was done for 1 hour with either lamin A+C, SCD1, c-Myc, survivin, LDHA, ki67, and BIP primary antibodies. For detection, the Envision Dual Labeled Polymer kit (Dako) was used for 30 minutes for anti-species secondary antibodies and stained with DAB chromagen for 5 minutes. Then, lightly counterstained with Gill I hematoxylin for 30 seconds before dehydration and mounting. Images were obtained at 20× using an Aperio AT2 Scanscope. IHC scoring was done using an algorithm in the Imagescope software based upon signal intensity of weak (1+), moderate (2+) or strong staining (3+) with criteria of at least 20% positivity. H score was calculated based upon signal intensity (0-3) using the formula: [(1+%×1)+(2+%×2)+(3+%×3)].
# CX-003 CCA PDTX = CX-003 CCA PDTX mouse model (c-Myc negative); assay type: in vivo; settings: 50 mg/kg oral daily
# Method: as §1
# 468 kinases = test: Full matrix kinome scan, binding to 468 kinases; parameters: species or system human
# Method: Kinome Scan was conducted by Lead Hunter Discovery Services
# PAX148 HCC PDTX = PAX148 HCC PDTX mouse model; assay type: in vivo; settings: daily SSI-4 20-50 mg/kg oral, high LDHA model
# Method: as §1
# [1] = tested on: cMyc, survivin, cyclin D1, cleaved PARP, BIP; test: Western blot analysis of HCC cell lines; assay type: cell-based
# Method: Cells were collected via scraping and lysed in RIPA extraction buffer containing protease inhibitor cocktail and phosphatase inhibitor. Protein concentrations were measured by bicinchoninic acid (BCA) assay and 30 μg were loaded on 4-12% Bis-Tris/MES gels and then transferred to 0.2 μm Immobilon-P membranes. The membranes were hybridized overnight at 4° C. with the following antibodies: SCD1, PARP, survivin, c-Myc, BIP and β-actin. Secondary species-specific horseradish peroxidase-labeled antibodies were from Jackson Immunoresearch. Detection was performed using Supersignal chemiluminescence kit.
# [2] = Single dose pharmacokinetics in fasted male C57BL/6 mice (PO or IV); assay type: in vivo, mouse
# Method: (§2) Pharmacokinetic assessment was performed for SSI-4 administered to fasted male C57BL/6 mice either intravenously (IV) or by oral gavage (PO) in DMSO:PEG400:water (10:70:20) as a clear solution at 5 mg/mL (IV dosing), and 1.3 or 10 mg/mL (respectively for the PO dosing). Serum analysis was performed by LC-MS-MS. PK calculation settings were obtained using the Phoenix WinNonlin 6.3 program, using either the Noncompartmental model 201 (IV bolus input) or Noncompartmental model 200 (extravascular input). Microsomes were isolated from murine liver using Microsome Isolation Kit (BioVision). Each assay (100 μL) contained 50 μg of microsomes, 1 μL of DMSO (for no drug controls) or DMSO-solubilized SCD1 inhibitor, 1 mM reduced NADH, 60 µM coenzyme A, 1 mM ATP, 1 mM DTT, and 5 mM MgCl2 in 100 mM sodium phosphate buffer (pH 7.4). […] To quantify biotransformation of 13C18-stearoyl CoA to 13C18-oleoyl CoA for drug treatments relative to vehicle controls, supernatants were evaluated using the LC/MS2 acyl CoA quantitation method of Magnes et al. and adapting selected reaction monitoring (SRM) for isotope-labeled acyl CoAs. […] SRM signal areas for isotope-labeled acyl CoAs were measured relative to the heptadecanoyl CoA I.S. using XCalibur software, and percent enzyme inhibition determined by comparing 13C18-oleoyl CoA quantities between treatment and DMSO control assays. […]
# [3] = tested on: human (CX-004T2 and HUCCT1) cholangiocarcinoma (CCA) cell lines; test: Proliferation of human CCA cell lines; assay type: cell-based; settings: 0.1-1 μM, 5 day exposure
# [4] = tested on: SSI4 responsive HCC cells; test: Lipid assay, unsaturated fatty acids in HCC cells; assay type: cell-based; settings: 1 μM, 48 hour treatment
# Method: Cells were treated for 48 hours with 1 μM SSI4 and lipids from 8 million cells were extracted using the 1957 Folch Lipid Extraction method. Lipids were re-suspended in DMSO and analyzed using Cell Biolab's lipid quantitation assay kit. Borosilicate glass tubes and polypropylene tips and plates were used during the experiments. Samples were read at OD540 nm and were background corrected on a Spectramax M3 spectrophotometer.
# [5] = tested on: Normal human hepatocytes (HH) cells; test: Proliferation assay in normal human hepatocytes; assay type: cell-based; settings: 1 μM
# HLE HCC mouse model = test: HLE HCC mouse model, combination study; assay type: in vivo; settings: 10 mg/kg SSI4, 30 mg/kg sorafenib or both
# Method: as §1
# SCD1 = target: T1, SCD1 (Mus musculus, UniProt P13516); test: Inhibition of oleoyl CoA biosynthesis by mouse liver microsomes (13C18-stearoyl CoA conversion, LC/MS); assay type: biochemical
# T1 construct: Each assay (100 μL) contained 50 μg of microsomes; from tissue; host or cells: mouse liver microsomes
# T1 sequence (P13516 1-355): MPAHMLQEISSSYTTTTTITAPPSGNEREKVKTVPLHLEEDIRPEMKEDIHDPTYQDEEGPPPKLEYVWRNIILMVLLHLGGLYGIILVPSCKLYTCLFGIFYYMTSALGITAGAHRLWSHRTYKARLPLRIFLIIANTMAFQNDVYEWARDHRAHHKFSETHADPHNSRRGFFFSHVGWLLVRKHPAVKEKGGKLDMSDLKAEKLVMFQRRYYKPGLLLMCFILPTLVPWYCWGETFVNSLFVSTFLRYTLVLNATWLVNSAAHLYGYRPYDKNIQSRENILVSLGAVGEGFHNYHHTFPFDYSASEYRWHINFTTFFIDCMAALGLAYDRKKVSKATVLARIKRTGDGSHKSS
# Method: as §2, with “Magnes” left out
# [6] = tested on: mouse (M1-1a and M6-1b) cholangiocarcinoma (CCA) cell lines; test: Proliferation of mouse CCA cell lines; assay type: cell-based; settings: 0.1-1 μM, 5 day exposure
# HCC cell lines = test: Proliferation assay in HCC cell lines; assay type: cell-based
# Method: (§3) Cell lines were maintained in DMEM media supplemented with sodium pyruvate, HEPES, non-essential amino acids, 3% FBS and antibiotics. Cells were plated at 30,000 cells per well in 12-well plate and treated for 4-5 days at the indicated doses with SSI4 and sorafenib diluted in DMSO at 1:1000. Cell number was determined by using a Coulter Particle Counter.
# [7] = Seven day oral toxicity test in Sprague Dawley rats; assay type: in vivo, rat
# Method: Sprague dawley rats (6-8 weeks old M/F) were orally gavaged with SS1-4 at the indicated dose daily, for a duration of seven days. For each dose levels 3 male and 3 females were placed on study. Rats were clinically observed and weighed daily. On day 8 rats were euthanatized and blood was collected by cardiac puncture. Blood chemistry was measured by STAT Veterinary laboratory.
# [8] = tested on: SSI-4 responsive HCC cells; test: Soft agar colony formation assay; assay type: cell-based
# Method: Soft agar cultures were prepared by diluting 2× growth medium 1:1 in 1.5% Seaplaque GTG agarose with 1000 cells/plate in 6-well culture dishes. Colonies were stained with Giemsa after 3 weeks and colonies larger than 150 μm were counted using Image J software.
# HLF cells = test: Combination proliferation assay in HLF cells (Chou and Talalay); assay type: cell-based; settings: in combination with SSI-4
# Method: as §3
structure (smiles),measurement,setting,value
"CNC(=O)c1ccnc(NC(=O)N2CCC(Oc3ccccc3Cl)CC2)c1 [SSI-4, 2-{[4-(2-Chlorophenoxy)piperidine-1-carbonyl]amino}-N-methylpyridine-4-carboxamide]","BIP, biomarker of ER stress (IHC)",LIV58 HCC PDTX; LIV58 tumors,upregulated
same,"Ki-67, survivin and cMyc (IHC)",LIV58 HCC PDTX; LIV58 tumors,attenuated
same,antitumor response (tumor volume),"LIV58 HCC PDTX; daily SSI-4 20-50 mg/kg oral, low LDHA model",~30%
same,antitumor response (tumor volume),CX-003 CCA PDTX,no response
same,kinases found to bind (of 468),468 kinases; SSI-4 at 10 nM,none
same,kinases found to bind (of 468),"468 kinases; SSI-4 at 100 nM, kinase bound is CDKL2",1
same,antitumor response (tumor volume),PAX148 HCC PDTX,highly sensitive
same,ER stress (BIP),[1],inducing
same,"Wnt regulated genes (cMyc, survivin and cyclin D1) protein",[1],down-regulated
same,apoptosis (cleaved PARP),[1],inducing apoptosis
same,half-life,"[2]; male, C57BL/6, mouse, serum, following a single oral dose",3 to 4 h
same,oral bioavailability,"[2]; single dose, mice",excellent oral bioavailability
same,cell growth,[3],growth inhibition
same,levels of unsaturated fatty acids,[4],decreased
same,growth inhibition,[5],not growth inhibited
same,in vivo tumor response over time,HLE HCC mouse model,escape over time on therapy
same,IC50,SCD1,0.0019 µM
same,cell growth,[6],growth inhibition
same,proliferation response in HCC cells silenced for cMyc with shRNA,"HCC cell lines; 1 uM SSI-4, c-Myc 1657 shRNA",blunted response
same,IC50,HCC cell lines; other (non-responsive) HCC cell lines,≥ 10 µM
same,blood chemistries,[7]; day 8,in normal range
same,toxicity,"[7]; male or female rats, daily oral for seven days",Little to no toxicity
same,weight loss,"[7]; males, 300 mg/kg",6%
same,colony formation in soft agar,[8],decreased colony formation
CNC(=O)c1cc(Oc2ccc(NC(=O)Nc3ccc(Cl)c(C(F)(F)F)c3)c(F)c2)ccn1 [Regorafenib],synergy by Chou and Talalay method,HLF cells,exhibited synergy
"CNC(=O)c1cc(Oc2ccc(NC(=O)Nc3ccc(Cl)c(C(F)(F)F)c3)cc2)ccn1 [sorafenib, reference compound]",in vivo tumor response over time,HLE HCC mouse model,escape over time on therapy
same,IC50,HCC cell lines; all cell lines tested,1.7 to 6.4 µM
